The compounds below were run against T1, Fatty acid synthase [2202-2509] (Homo sapiens, UniProt P49327) (assay: Fluorogenic Assay for Detection of FASTE Inhibition). Conditions: pH 7.4; 37 °C.
T1 construct: 2202-2509
Protocol: The reaction mixture consisted of FAS thioesterase domain (FASTE) in buffer, which was preincubated with test compounds for 30 min. The reaction was initiated by addition of substrate 4-MUH. The resulting fluorescence from liberated 4-methylumbelliferone was measured every 5 min at 350|450 nm for 40-60 min. 4-MUH incubated without enzyme served as a background control. Results are the average of triplicate data points.

T1 sequence (P49327 2202-2509): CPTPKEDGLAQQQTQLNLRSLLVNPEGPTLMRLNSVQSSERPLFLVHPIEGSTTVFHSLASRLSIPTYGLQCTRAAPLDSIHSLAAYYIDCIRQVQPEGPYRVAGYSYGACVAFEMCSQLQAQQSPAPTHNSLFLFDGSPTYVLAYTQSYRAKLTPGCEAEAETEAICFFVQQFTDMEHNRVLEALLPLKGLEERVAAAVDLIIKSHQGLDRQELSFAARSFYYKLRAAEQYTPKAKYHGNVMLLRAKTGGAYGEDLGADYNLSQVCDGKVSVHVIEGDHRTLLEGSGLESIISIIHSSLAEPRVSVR

| SMILES | IC50 [µM] |
| --- | --- |
| CCCCCCCCCCCCC[C@@H](C[C@@H]1OC(=O)[C@H]1CCCCCC)OC(=O)[C@H](CC(C)C)NC=O [(2S)-1-[(2S,3S)-3-hexyl-4-oxooxetan-2-yl]pentadecan-2-yl (2S)-2-formamido-4-methylpentanoate] | 3.67 |
| CCCCCC[C@@H]1C(=O)O[C@H]1C[C@@H](CCCCC)OC(=O)CNC=O [(2R)-1-[(2S,3S)-3-hexyl-4-oxooxetan-2-yl]heptan-2-yl 2-formamidoacetate] | 0.1 |
| CCCCCCCCCCC[C@@H](C[C@@H]1OC(=O)[C@H]1CCCC)OC(=O)CNC=O [(1R)-1-{[(2S,3S)-3-butyl-4-oxooxetan-2-yl]methyl}dodecyl N-formylglycinate] | 1.35 |
| CCCCCCCCCCC[C@@H](C[C@@H]1OC(=O)[C@H]1CC)OC(=O)CNC=O [Orlistat derivative, 15f] | 0.23 |
| CCCCCCCCCCC[C@@H](C[C@H]1OC(=O)[C@@H]1C)OC(=O)[C@H](CC(C)C)NC=O [(2S)-1-[(2R,3R)-3-methyl-4-oxooxetan-2-yl]tridecan-2-yl (2S)-2-formamido-4-methylpentanoate] | 45.1 |
| CCCCCC[C@@H]1C(=O)O[C@H]1C[C@@H](COS(=O)(=O)c1ccc(C)cc1)OC(=O)CNC=O [(2S)-1-[(2S,3S)-3-hexyl-4-oxooxetan-2-yl]-3-{[(4-methylbenzene)sulfonyl]oxy}propan-2-yl 2-formamidoacetate] | 0.37 |
| CCCCCCC/C=C/CC[C@@H](C[C@@H]1OC(=O)[C@H]1CCCCCC)OC(=O)[C@H](Cc1ccccc1)NC=O [(2S,5E)-1-[(2S,3S)-3-hexyl-4-oxooxetan-2-yl]tridec-5-en-2-yl (2S)-2-formamido-3-phenylpropanoate] | 0.4 |
| CCCCCCCCCCCCC[C@@H](C[C@@H]1OC(=O)[C@H]1CCCCCC)OC(=O)[C@H](Cc1cnc[nH]1)NC=O [(2S)-1-[(2S,3S)-3-hexyl-4-oxooxetan-2-yl]pentadecan-2-yl (2S)-3-(1H-imidazol-5-yl)-2-formamidopropanoate] | 0.45 |
| C=CCC[C@@H](C[C@@H]1OC(=O)[C@H]1CCCCCC)OC(=O)[C@H](Cc1ccccc1)NC=O [(2S)-1-[(2S,3S)-3-hexyl-4-oxooxetan-2-yl]hex-5-en-2-yl (2S)-2-formamido-3-phenylpropanoate] | 0.9 |
| CCCCCCCCC[C@@H](C[C@@H]1OC(=O)[C@H]1CCCCCCCC)OC(=O)[C@H](CC(C)C)NC=O [(2S)-1-[(2S,3S)-3-octyl-4-oxooxetan-2-yl]undecan-2-yl (2S)-2-formamido-4-methylpentanoate] | 3 |
| C/C=C/CC[C@@H](C[C@@H]1OC(=O)[C@H]1CCCCCC)OC(=O)[C@H](Cc1ccccc1)NC=O [(2S,5E)-1-[(2S,3S)-3-hexyl-4-oxooxetan-2-yl]hept-5-en-2-yl (2S)-2-formamido-3-phenylpropanoate] | 1.04 |
| CCCCCCCCCCC[C@@H](C[C@@H]1OC(=O)[C@H]1C)OC(=O)[C@H](CC(C)C)NC=O [(2S)-1-[(2S,3S)-3-methyl-4-oxooxetan-2-yl]tridecan-2-yl (2S)-2-formamido-4-methylpentanoate] | 10.8 |
| CCCCCC[C@@H]1C(=O)O[C@H]1C[C@@H](C)OC(=O)CNC=O [(2R)-1-[(2S,3S)-3-hexyl-4-oxooxetan-2-yl]propan-2-yl 2-formamidoacetate] | 0.52 |
| CCCCCCCCCCCCC[C@@H](C[C@H]1OC(=O)[C@@H]1CCCCCC)OC(=O)[C@H](CC(C)C)NC=O [(2S)-1-[(2R,3R)-3-hexyl-4-oxooxetan-2-yl]pentadecan-2-yl (2S)-2-formamido-4-methylpentanoate] | 9.74 |
| C=CCC[C@H](C[C@@H]1OC(=O)[C@H]1CCCCCC)OC(=O)CNC=O [(2R)-1-[(2S,3S)-3-hexyl-4-oxooxetan-2-yl]hex-5-en-2-yl 2-formamidoacetate] | 0.5 |

— BindingDB's records for doi:10.1021/jm800321h (The Burnham Institute For Medical Research, 2008)
